What was measured:
[1] = biological target: T1, β-catenin/BCL9 PPI (Homo sapiens, UniProt P35222); assay: AlphaScreen competitive inhibition assay of β-catenin/BCL9 PPI; type: binding; conditions: for IC50 / Ki: AlphaScreen, mean ± SD; for IC50: 5 nM biotinylated BCL9, 40 nM His6-tagged FL-β-catenin; for Ki: Ki derived from IC50 by method of Nikolovska-Coleska et al.
T1 construct: 40 nM His6-tagged FL-β-catenin
T1 sequence (P35222 1-781): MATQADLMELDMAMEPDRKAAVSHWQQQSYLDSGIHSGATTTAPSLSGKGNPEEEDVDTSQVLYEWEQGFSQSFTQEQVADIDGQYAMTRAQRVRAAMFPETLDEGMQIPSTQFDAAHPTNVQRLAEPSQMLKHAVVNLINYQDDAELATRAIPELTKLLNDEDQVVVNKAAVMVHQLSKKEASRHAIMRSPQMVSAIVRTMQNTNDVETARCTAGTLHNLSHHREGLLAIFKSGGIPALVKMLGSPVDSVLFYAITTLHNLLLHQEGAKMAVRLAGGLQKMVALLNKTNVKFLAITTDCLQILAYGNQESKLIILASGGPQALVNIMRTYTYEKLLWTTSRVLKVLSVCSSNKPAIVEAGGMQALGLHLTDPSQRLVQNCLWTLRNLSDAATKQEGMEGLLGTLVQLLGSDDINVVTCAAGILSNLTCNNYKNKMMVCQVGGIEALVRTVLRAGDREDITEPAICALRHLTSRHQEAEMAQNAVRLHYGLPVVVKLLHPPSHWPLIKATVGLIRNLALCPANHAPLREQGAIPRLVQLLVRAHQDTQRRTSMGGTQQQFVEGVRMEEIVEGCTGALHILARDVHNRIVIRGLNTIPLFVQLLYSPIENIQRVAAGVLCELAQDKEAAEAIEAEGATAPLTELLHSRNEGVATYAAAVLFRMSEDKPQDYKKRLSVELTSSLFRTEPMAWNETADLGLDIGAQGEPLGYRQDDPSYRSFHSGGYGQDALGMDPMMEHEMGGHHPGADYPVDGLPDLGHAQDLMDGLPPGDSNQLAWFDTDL
Experimental: For the competitive inhibition assays of β-catenin/BCL9 PPI, the negative control (equivalent to 0% inhibition) refers to 5.0 nM biotinylated BCL9, 40 nM His6-tagged FL-β-catenin, and 10 μg/mL of donor and acceptor beads in a final volume of 25 μL of assay buffer, but no tested inhibitor present. The positive control (equivalent to 100% inhibition) refers to 5.0 nM biotinylated BCL9 and 10 μg/mL of donor and acceptor beads in a final volume of 25 μL of assay buffer. For the β-catenin/BCL9 assay, 5 nM biotinylated BCL9 and 40 nM His6-tagged FL-β-catenin were incubated in assay buffer at 4° C. for 30 min. Different concentrations of the tested inhibitor were added and incubated in 20 μL of assay buffer at 4° C. for another 1 h. All of the above assay plates were covered and gently mixed on an orbital shaker. The donor and acceptor beads were then added to the plates to a final concentration of 10 μg/mL in 25 μL of assay buffer. The mixture was incubated for 1 h at 4° C. before detection. The IC50 value was determined by nonlinear least-squares analysis of GraphPad Prism 5.0. The Ki values were derived from the IC50 values using a method reported by Nikolovska-Coleska et al. The assays were conducted under the conditions reported by Nikolovska-Coleska et al.'s equation for determining the Ki values. All of the experiments were performed in triplicate. The results were expressed as mean±standard deviation.

[2] = biological target: T2, β-catenin (Homo sapiens, UniProt P35222); assay: FP assay, binding of peptides with β-catenin (Kd); conditions: for Kd: fluorescence polarization, 50 nM FITC labeled peptide, 1×PBS
T2 sequence (P35222 1-781): T1 sequence (P35222 1-781)

SMILES | IC50 [1] [µM] | Ki [1] [µM] | binding activity, in words [2] | Kd [2] [µM] | ability to inhibit β-catenin/BCL9 PPI, in words [1]
CCC(C)[C@@H](CN(CC(=O)N[C@@H](CC(C)C)CN(CC(=O)N[C@@H](CC(C)C)CN(CC(N)=O)S(=O)(=O)Cc1ccccc1)S(=O)(=O)CC(C)C)S(C)(=O)=O)NC(=O)CN(C[C@H](CCCNC(=N)N)NC(=O)CN(C[C@H](CC(C)C)NC(=O)CN(C[C@@H](NC(=O)CN(C[C@H](CC(C)C)NC(=O)CN(C[C@H](CCCNC(=N)N)NC(=O)CN(C[C@H](CCCNC(=N)N)NC(=O)CN(C[C@H](CCC(=O)O)NC(C)=O)S(=O)(=O)CCN)S(C)(=O)=O)S(C)(=O)=O)S(=O)(=O)CCN)C(C)O)S(=O)(=O)CC(C)C)S(=O)(=O)CCN)S(C)(=O)=O (some centres unmarked) [Peptide 8] | 8.01 ± 0.82 | 7.2 ± 0.72 | inferior binding activity | 3.89 | –
CC(=O)N[C@@H](CCC(=O)O)CN(CC(=O)N[C@@H](CCCNC(=N)N)CN(CC(=O)N[C@@H](CCCNC(=N)N)CN(CC(=O)N[C@@H](CC(C)C)CN(CC(=O)N[C@H](CN(CC(=O)N[C@@H](CC(C)C)CN(CC(=O)N[C@@H](CCCNC(=N)N)CN(CC(=O)N[C@@H](CCCNC(=N)N)CN(CC(=O)N[C@@H](CC(C)C)CN(CC(=O)N[C@@H](CC(C)C)CN(CC(N)=O)S(=O)(=O)Cc1ccccc1)S(=O)(=O)CC(C)C)S(C)(=O)=O)S(=O)(=O)CC(C)C)S(=O)(=O)CCN)S(=O)(=O)CC(C)C)C(C)O)S(=O)(=O)CCN)S(C)(=O)=O)S(C)(=O)=O)S(=O)(=O)CCN (some centres unmarked) [Peptide 9] | 12.9 ± 2.15 | 11.6 ± 1.92 | inferior binding activity | 5.14 | –
CCC(C)[C@@H](CN(CC(=O)N[C@@H](CC(C)C)CN(CC(=O)N[C@@H](CC(C)C)CN(CC(N)=O)S(=O)(=O)Cc1ccccc1)S(=O)(=O)CC(C)C)S(=O)(=O)CC(C)C)NC(=O)CN(C[C@H](CCCNC(=N)N)NC(=O)CN(C[C@H](CC(C)C)NC(=O)CN(C[C@@H](NC(=O)CN(C[C@H](CC(C)C)NC(=O)CN(C[C@H](CCCNC(=N)N)NC(=O)CN(C[C@H](CCCNC(=N)N)NC(=O)CN(C[C@H](CCC(=O)O)NC(C)=O)S(=O)(=O)CCN)S(C)(=O)=O)S(C)(=O)=O)S(=O)(=O)CCN)C(C)O)S(=O)(=O)CC(C)C)S(=O)(=O)CCN)S(=O)(=O)CC(C)C (some centres unmarked) [Peptide 10] | 4.07 ± 0.59 | 3.65 ± 0.51 | decreased binding activity | 2.51 | –
CCC(C)[C@@H](CN(CC(=O)N[C@@H](C)CN(CC(=O)N[C@@H](CC(C)C)CN(CC(N)=O)S(=O)(=O)Cc1ccccc1)S(=O)(=O)CC(C)C)S(C)(=O)=O)NC(=O)CN(C[C@H](CCCNC(=N)N)NC(=O)CN(C[C@H](CC(C)C)NC(=O)CN(C[C@@H](NC(=O)CN(C[C@H](CC(C)C)NC(=O)CN(C[C@H](CCCNC(=N)N)NC(=O)CN(C[C@H](CCCNC(=N)N)NC(=O)CN(C[C@H](CCC(=O)O)NC(C)=O)S(=O)(=O)CCN)S(C)(=O)=O)S(C)(=O)=O)S(=O)(=O)CCN)C(C)O)S(=O)(=O)CC(C)C)S(=O)(=O)CCN)S(=O)(=O)CC(C)C (some centres unmarked) [Peptide 11] | 17.4 ± 3.35 | 15.7 ± 3 | inferior binding activity | 8.26 | –
CCC(C)[C@@H](CN(CC(=O)N[C@@H](CC(C)C)CN(CC(=O)N[C@@H](C)CN(CC(N)=O)S(=O)(=O)Cc1ccccc1)S(=O)(=O)CC(C)C)S(C)(=O)=O)NC(=O)CN(C[C@H](CCCNC(=N)N)NC(=O)CN(C[C@H](C)NC(=O)CN(C[C@@H](NC(=O)CN(C[C@H](CC(C)C)NC(=O)CN(C[C@H](CCCNC(=N)N)NC(=O)CN(C[C@H](C)NC(=O)CN(C[C@H](CCC(=O)O)NC(C)=O)S(C)(=O)=O)S(C)(=O)=O)S(C)(=O)=O)S(=O)(=O)CCN)C(C)O)S(=O)(=O)CC(C)C)S(=O)(=O)CCN)S(=O)(=O)CC(C)C (some centres unmarked) [Peptide 12] | > 10 | > 10 | – | > 10 | completely losing their ability to inhibit β-catenin/BCL9 PPI
